Series [1] concerns weeds. Put plainly: Post-emergence test, activity against weeds. Conditions: test plants of 5-15 cm sprayed, rated after three weeks vs untreated control. The format is in vivo. Here is the method:
(§1) Solvent: 5 parts by weight of acetone
(§2) Emulsifier: 1 part by weight of alkylaryl polyglycol ether
To produce a suitable preparation of active compound, 1 part by weight of active compound is mixed with the stated amount of solvent, the stated amount of emulsifier is added and the concentrate is diluted with water to the desired concentration.
Test plants of a height of 5-15 cm are sprayed with the preparation of active compound such that the particular amounts of active compound desired are applied per unit area. The concentration of the spray liquor is chosen so that the particular amounts of active compound desired are applied in 1000 l of water/ha.
(§3) After three weeks, the degree of damage to the plants is rated in % damage in comparison to the development of the untreated control.
(§4) 0%=no effect (like untreated control)

In series [2] the test system is weeds. Put plainly: Pre-emergence test, action against weeds. The format is in vivo. Conditions: soil sprayed about 24 hours after sowing, rated after three weeks vs untreated control. Here is the method: as §1, §2
To produce a suitable preparation of active compounds, 1 part by weight of active compound is mixed with the stated amount of solvent, the stated amount of emulsifier is added and the concentrate is diluted with water to the desired concentration.
Seeds of the test plants are sown in normal soil. After about 24 hours, the soil is sprayed with the preparation of active compounds such that the particular amounts of active compound desired are applied per unit area. The concentration of the spray liquor is chosen so that the particular amounts of active compound desired are applied in 1000 l of water/ha.
as §3, §4

What is called melting point is the temperature of the solid-liquid transition.

Molecules are shown by their SMILES.

Regarding `O=c1cc(C(F)(F)F)[nH]c(=O)n1-c1ccc(OCc2ccc(Cl)nc2)cc1[N+](=O)[O-]` [Example 2, 1-[4-(2-chloro-pyridin-5-yl-methoxy)-2-nitrophenyl]-4-trifluoromethyl-3,6-dihydro-2,6-dioxo-1(2H)-pyrimidine], the melting point was 209 °C.
In turn, `CC(=O)Nc1cc(OCc2ccc(Cl)cc2)ccc1-n1c(=O)cc(C(F)(F)F)n(C)c1=O` [Example 7, 1-[2-acetylamino-4-(4-chloro-phenylmethoxy)-phenyl]-3-methyl-4-trifluoromethyl-3,6-dihydro-2,6-dioxo-1(2H)-pyrimidine] had a melting point of 230 °C. Moreover, the “activity against weeds (degree of damage to the plants)” value in the series with weeds [1] is “strong activity”. The “action against weeds (degree of damage to the plants)” value (“action against weeds” for short) in the series with weeds [2] was “strong action”.
`Nn1c(C(F)(F)F)cc(=O)n(-c2ccc(OCc3ccc(Cl)nc3)cc2[N+](=O)[O-])c1=O` [Example 4, 3-amino-1-[4-(2-chloro-pyridin-5-yl-methoxy)-2-nitro-phenyl]-4-trifluoromethyl-3,6-dihydro-2,6-dioxo-1(2H)-pyrimidine]: the melting point turned out to be 193 °C.
`Cn1c(C(F)(F)F)cc(=O)n(-c2ccc(OCc3ccc(Cl)cc3)cc2[N+](=O)[O-])c1=O` [Example 3, 1-[4-(4-chloro-phenylmethoxy)-2-nitrophenyl]-3-methyl-4-trifluoromethyl-3,6-dihydro-2,6-dioxo-1(2H)-pyrimidine] gave a melting point of 159 °C. Besides, the “action against weeds” value with weeds [2] is “strong action”.
`O=c1cc(C(F)(F)F)[nH]c(=O)n1-c1ccc(OCc2ccc(Cl)cc2)cc1[N+](=O)[O-]` [Example 1, 1-[4-(4-chloro-phenylmethoxy)-2nitrophenyl]-4-trifluoromethyl-3,6-dihydro-2,6-dioxo-1(2H)-pyrimidin] yielded a melting point of 237 °C.
In the case of `Cn1c(C(F)(F)F)cc(=O)n(-c2ccc(OCc3ccc(Cl)cc3)cc2N)c1=O` [Example 5, 1-[2-amino-4-(4-chloro-phenylmethoxy)-phenyl]-3-methyl-4-trifluoromethyl-3,6-dihydro-2,6-dioxo-1(2H)-pyrimidine], the melting point stood at 166 °C. For the same compound, the “activity against weeds (degree of damage to the plants)” value in the series on weeds [1] is reported as “strong activity”. In addition, the “action against weeds” value in the series with weeds [2] is “strong action”.

The values are drawn from patent US6432879B1, “Substituted phenyl uracils” (Bayer Aktiengesellschaft, priority 1997, dated 2002).
